What was measured:
[1] = system: rat having hypersensitive pain induced by anticancer agent (Oxaliplatin); experiment: Von Frey test in rat having hypersensitive pain induced by anticancer agent (Experimental Example 1); format: in vivo; details: SD rat, Oxaliplatin 5 mg/kg i.p. 5 days; oral once per day 28 days; L-serine 10.5 mg/kg, EPA 300 mg/kg equivalent; 22 and 28 days; stimulation intensity 4 g, 8 g, 15 g
Experimental: 6-Week-old male SD rats were divided into 5 groups (1A group-1E group, N=6) based on the body weight, an anticancer agent (Oxaliplatin 5 mg/body weight kg) was intraperitoneally administered to 4 groups other than 1A group for 5 days, and saline was intraperitoneally administered to 1A group for 5 days. In addition, the following evaluation liquid was orally ingested once per day in the time zone of 4 to 5 hours after start of the light period for 28 days simultaneously from the start of the intraperitoneal administration. As eicosapentaenoic acid administered to 1D group, 1E group, fish oil corresponding to 300 mg/body weight kg (equivalent to 429 mg/body weight kg as n-3 fatty acid) was used. Evaluation Liquids for 1A Group-1E Group: • 1A group: distilled water • 1B group: distilled water • 1C group: L-serine 10.5 mg/body weight kg • 1D group: eicosapentaenoic acid 300 mg/body weight kg equivalent • 1E group: L-serine 10.5 mg/body weight kg+eicosapentaenoic acid 300 mg/body weight kg equivalent Von Frey test was performed at 22 days and 28 days after the start of the anticancer agent administration. […] The ratio (%) of the number of pain response relative to the number (10 times) of filament pressing was calculated at each stimulation intensity.

[2] = system: rat having hypersensitive pain induced by gonitis inducing agent (Zymosan); experiment: Von Frey test in rat having hypersensitive pain induced by gonitis inducing agent (Zymosan) (Experimental Example 2); format: in vivo; details: SD rat, Zymosan 2 mg right knee; oral once per day; L-serine 10.5 mg/kg, EPA 300 mg/kg equivalent; 7 and 14 days; right and left foot; 4 g, 8 g, 15 g
Experimental: (§1) 8-Week-old male SD rats were divided into 5 groups (2A group-2E group, N=7) based on the body weight, and 2 mg of a gonitis inducing agent (Zymosan) was administered to the right knee cartilage part in 4 groups other than 2A group. In addition, the following evaluation liquid was orally ingested once per day in the time zone of 4 to 5 hours after start of the light period for 21 days from the administration of the gonitis inducing agent to the right knee. As eicosapentaenoic acid administered to 2D group, 2E group, fish oil corresponding to 300 mg/body weight kg (equivalent to 429 mg/body weight kg as n-3 fatty acid) was used.
(§2) Evaluation Liquids for 2A Group-2E Group: • 2A group: distilled water • 2B group: distilled water • 2C group: L-serine 10.5 mg/body weight kg • 2D group: eicosapentaenoic acid 300 mg/body weight kg equivalent • 2E group: L-serine 10.5 mg/body weight kg+eicosapentaenoic acid 300 mg/body weight kg equivalent
Von Frey test was performed at 7 days and 14 days after the gonitis inducing agent administration. […] The ratio (%) of the number of pain response relative to the number (5 times) of filament pressing was calculated at each stimulation intensity.

[3] = system: rat having hypersensitive pain induced by gonitis inducing agent (Zymosan); experiment: Gastrocnemius weight of right and left foot in Zymosan gonitis rat (Experimental Example 2); format: in vivo; details: 21 days after Zymosan, rank among 2C-2E groups
Experimental: as §1, §2
After the completion of ingestion of the evaluation liquid (21 days after gonitis inducing agent administration), rats were fasted for 17 hours, and the body weight, gastrocnemius weight of the right foot and the left foot, liver weight and weight of fat around epididymis of each group were measured.

[4] = system: peripheral neuropathic pain in an animal model of anticancer agent or diabetes; details: at the maximum concentration of L-serine; WO 2011/111355; cited from earlier work

N[C@@H](CO)C(=O)O [L-serine]
number of pain response (Von Frey test) as compared to 1B group [1]: slightly decreased | number of pain response (Von Frey test) as compared to 2B group [2]: slightly decreased | gastrocnemius weight of the right foot, comparison in 2C group to 2E group ([3]; after 17 h fasting): lowest | difference in the gastrocnemius weight of both feet, comparison among 2C group to 2E group [3]: largest | relieving effect on peripheral neuropathic pain due to anticancer agents and diabetes [4]: partial
